Laboratory results from paper PMC9525273 (Nature Communications, 2022).
Where “and” joins values, the source holds several entries; their conditions need not be identical. Equal entries are not always repeated. Where two headings read alike, the source gives them in different places.

What was measured:
NF54^G358S-2 parasites = assay: P. falciparum proliferation assay (72 h, flow cytometry, SYBR Green I/MitoTracker); format: cell-based, Plasmodium falciparum; settings: for FC (IC50) / FC (IC90): NF54G358S-2 compared to NF54WT
Outline: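 Predominantly ring-stage cultures at 0.3% parasitaemia, 1% haematocrit, in medium with 10% O+ human serum; compound exposure 72 h, DMSO <0.5% (v/v). Live parasites counted by flow cytometry with SYBR Green I and 200 nM MitoTracker Deep Red. IC50/IC90 from linear interpolation of dose-response data.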

[1] = tested on: parasite lines with a G358S mutation in PfATP4; assay: P. falciparum proliferation assays, statements on all lines with the G358S mutation; format: cell-based, Plasmodium falciparum
Method: Two types of parasite proliferation assays were employed in this study, with both yielding highly consistent results. For the NF54-based lines and Dd2-B2-PfATP4^G358S and its parent, assays were initiated with cultures containing predominantly ring-stage parasites with a parasitaemia of 0.3% and a haematocrit of 1%. All assays using NF54 were performed in culture media containing 10% O + human serum. The duration of the assays was 72 h and the concentration of DMSO was <0.5% (v/v). Serial dilutions of the test compounds were performed using a Tecan D300e digital dispenser, with parasite cultures added manually. Parasite survival was assessed by flow cytometry on an Intellicyt iQue3 (Essen Bioscience), with 1× SYBR Green I (Invitrogen) and 200 nM MitoTracker Deep Red FM (Invitrogen) used to stain the nucleus and the mitochondria in live parasites, respectively. The gating strategy used to quantify parasite survival, performed using FlowJo version 10 (FlowJo LLC.), is illustrated in Supplementary Fig. 9. IC50 and IC90 values were calculated by linear interpolation of the dose-response data.
For experiments with all other parasites, the effects of compounds of interest on parasite proliferation was measured in 96-well plates containing serial dilutions of the compounds in culture medium, with a fluorescent DNA-intercalating dye used to detect surviving parasites. The assays were initiated with erythrocytes infected with predominantly ring-stage parasites, and the starting parasitaemia and haematocrit were both 1%. […] Fluorescence was measured using a FLUOstar OPTIMA plate reader (BMG LABTECH), with OPTIMA version 2.20R2 and MARS Data Analysis Software version 3.01 R2 (BMG LABTECH).

[2] = NF54G358S-2, single experiments, source data of Fig. 2 (nM in Supplementary Table 5), read-out: IC50 values
[3] = NF54G358S-2 parasites, individual experiments, read-out: IC90 values
[4] = Plasmodium falciparum, NF54, NF54G358S-2, 10% human serum, read-out: IC50 ± SEM
[5] = Plasmodium falciparum, NF54, NF54G358S-2, 10% human serum, read-out: IC90 ± SEM
[6] = Plasmodium falciparum, NF54, NF54G358S-2, MEAN, source data of Fig. 2, read-out: IC50 values, MEAN
[7] = Plasmodium falciparum, NF54, NF54G358S-2, single experiments, source data of Fig. 2 (nM in Supplementary Table 5), read-out: IC50 values
[8] = Plasmodium falciparum, NF54, NF54G358S-2 parasites, individual experiments, read-out: IC90 values
[9] = Plasmodium falciparum, NF54, NF54G358S-2 parasites, mean of the experiments, read-out: IC90 values, MEAN

SMILES	IC50 (NF54^G358S-2 parasites; [2])	FC (IC50) (NF54^G358S-2 parasites) [fold]	FC (IC90) (NF54^G358S-2 parasites) [fold]	IC90 (NF54^G358S-2 parasites; [3])	IC50 (NF54^G358S-2 parasites; [4]) [nM]	IC90 (NF54^G358S-2 parasites; [5]) [µM]	IC50 (NF54^G358S-2 parasites; [6]) [nM]	IC50 (NF54^G358S-2 parasites; [7]) [nM]	IC90 (NF54^G358S-2 parasites; [8]) [µM]	IC90 (NF54^G358S-2 parasites; [9]) [µM]	IC50 ([1]; Plasmodium falciparum, all parasite lines with a G358S mutation in PfATP4 tested in this study) [µM]	IC50 (NF54^G358S-2 parasites; Plasmodium falciparum, NF54, read-out: Dihydroartemisinin IC50 values, NF54G358S-2, MEAN) [nM]	IC50 (NF54^G358S-2 parasites; read-out: Dihydroartemisinin IC50 values, NF54G358S-2, single experiments) [nM]	effect of the G358S mutation in PfATP4 on parasite susceptibility ([1]; G358S lines vs PfATP4 wild-type controls)
N#Cc1cc(NC(=O)[C@H]2c3ccccc3C(=O)N(CC(F)(F)F)[C@@H]2c2cccnc2)ccc1F [(+)-SJ733]	11600 nM and 13800 nM and 13500 nM	138.1	152.9	25.5 µM and 23.3 µM and 23.8 µM	13000 ± 480	25 ± 0.892	13000	12900	27.3	25	> 9	–	–	–
C[C@H]1Cc2c([nH]c3cc(Cl)c(F)cc23)[C@@]2(N1)C(=O)Nc1ccc(Cl)cc12 [Cipargamin]	1750 nM and 2010 nM and 2430 nM	751.9	903.4	3.35 µM and 3.42 µM and 3.53 µM	–	3.43 ± 0.0367	1980	1750	3.43	3.43	–	–	–	–
C[C@H]1[C@@H](O)O[C@@H]2O[C@@]3(C)CC[C@H]4[C@H](C)CC[C@@H]1[C@@]24OO3 [Dihydroartemisinin]	–	1.1	1.2	0.0029 µM and 0.00251 µM and 0.00293 µM	0.9 ± 0.1	–	–	–	0.00284	0.0028	–	0.91	0.73	no effect
